Reference: the NIST ThermoML archive (doi:10.1021/je501106d)
± gives the expanded uncertainty stated by the source.

Conditions: for speed of sound: Brillouin scattering; for vapor or sublimation pressure: Closed cell (Static) method

CCCCCC [hexane]
speed of sound [m/s], Liquid
Conditions	1000 kPa	2500 kPa	4000 kPa	5500 kPa	7000 kPa	7500 kPa	8500 kPa
300.15 K	1080 ± 35	1090 ± 35	1102 ± 35	1115 ± 36	1129 ± 36	–	1140 ± 37
313.15 K	1027 ± 33	1038 ± 33	1049 ± 34	1062 ± 34	1077 ± 34	–	1092 ± 35
328.15 K	964.1 ± 31	975.9 ± 31	988.6 ± 32	1002 ± 32	1017 ± 33	–	1032 ± 33
343.15 K	900.3 ± 29	913.8 ± 29	927.8 ± 30	942.3 ± 30	957.3 ± 31	–	972.8 ± 31
353.15 K	857 ± 27	872 ± 28	887.1 ± 28	902.5 ± 29	918.1 ± 29	–	934 ± 30
363.15 K	813.22 ± 26	829.9 ± 27	846.4 ± 27	862.9 ± 28	879.3 ± 28	–	895.7 ± 29
373.15 K	768.8 ± 25	787.4 ± 25	805.6 ± 26	823.4 ± 26	840.9 ± 27	–	857.9 ± 28
383.15 K	723.8 ± 23	744.7 ± 24	764.8 ± 24	784.1 ± 25	802.8 ± 26	–	820.7 ± 26
393.15 K	678.3 ± 22	701.6 ± 22	723.8 ± 23	744.9 ± 24	765 ± 24	–	783.9 ± 25
403.15 K	632.1 ± 20	658.2 ± 21	682.8 ± 22	705.9 ± 23	727.5 ± 23	–	747.7 ± 24
413.15 K	585.4 ± 19	614.5 ± 20	641.7 ± 21	667 ± 21	690.4 ± 22	–	711.9 ± 23
423.15 K	538.1 ± 17	570.5 ± 18	600.6 ± 19	628.3 ± 20	653.7 ± 21	–	676.7 ± 22
433.15 K	490.1 ± 16	526.2 ± 17	559.3 ± 18	589.7 ± 19	–	617.3 ± 20	642 ± 21
443.15 K	–	481.5 ± 16	518 ± 17	551.3 ± 18	581.2 ± 19	–	607.8 ± 20
448.15 K	–	459.1 ± 15	497.4 ± 16	532.1 ± 17	563.3 ± 18	–	590.9 ± 19
453.15 K	–	436.6 ± 14	476.7 ± 15	513 ± 16	545.4 ± 18	–	574.1 ± 18
458.15 K	–	414 ± 13	456 ± 15	493.9 ± 16	527.7 ± 17	–	557.4 ± 18
463.15 K	–	391.3 ± 13	435.2 ± 14	474.8 ± 15	510.1 ± 16	–	540.9 ± 17
468.15 K	–	368.5 ± 12	414.5 ± 13	455.8 ± 15	492.5 ± 16	–	524.5 ± 17
473.15 K	–	345.7 ± 11	393.7 ± 13	436.8 ± 14	475 ± 15	–	508.2 ± 16
478.15 K	–	322.8 ± 10	372.9 ± 12	417.9 ± 14	457.6 ± 15	–	492.1 ± 16
483.15 K	–	–	352.1 ± 11	399 ± 13	440.3 ± 14	–	476.1 ± 15
488.15 K	–	–	331.3 ± 11	380.1 ± 12	–	–	–
493.15 K	–	–	310.5 ± 10	361.3 ± 12	–	–	–
498.15 K	–	–	289.6 ± 9.4	342.5 ± 11	–	–	–
503.15 K	–	–	268.8 ± 8.7	323.7 ± 11	–	–	–
506.15 K	–	–	256.2 ± 8.3	312.5 ± 10	–	–	–

Conditions	speed of sound, Gas [m/s]	speed of sound, Liquid [m/s]	vapor or sublimation pressure, Liquid [kPa]
300.15 K	–	1073 ± 34	14
313.15 K	–	993 ± 32	63 ± 30
328.15 K	–	926.8 ± 30	94 ± 30
343.15 K	–	882.7 ± 28	122 ± 30
353.15 K	–	838.8 ± 27	161 ± 30
363.15 K	–	794.9 ± 26	214 ± 30
373.15 K	–	751 ± 24	260 ± 30
383.15 K	178.6 ± 5.8	707.2 ± 23	331 ± 30
393.15 K	176.6 ± 5.7	663.4 ± 21	413 ± 30
403.15 K	174.3 ± 5.7	619.5 ± 20	512 ± 30
413.15 K	171.6 ± 5.6	575.6 ± 18	627 ± 30
423.15 K	168.3 ± 5.5	531.6 ± 17	762 ± 30
433.15 K	164.2 ± 5.3	487.5 ± 16	924 ± 30
443.15 K	159.4 ± 5.2	443.1 ± 14	1113 ± 30
448.15 K	156.6 ± 5.1	420.7 ± 14	1210 ± 30
453.15 K	153.5 ± 5	398.2 ± 13	1322 ± 30
458.15 K	150.1 ± 4.9	375.6 ± 12	1447 ± 30
463.15 K	146.4 ± 4.8	352.8 ± 11	1563 ± 30
468.15 K	142.2 ± 4.7	329.8 ± 11	1700 ± 30
473.15 K	137.6 ± 4.5	306.4 ± 9.9	1843 ± 30
478.15 K	132.5 ± 4.4	282.6 ± 9.1	1992 ± 30
483.15 K	126.9 ± 4.2	258.2 ± 8.3	2144 ± 30
488.15 K	120.6 ± 4	233 ± 7.5	2313 ± 30
493.15 K	113.4 ± 3.8	206.4 ± 6.7	2491 ± 30
498.15 K	105.3 ± 3.5	177.3 ± 5.8	2677 ± 30
503.15 K	95.91 ± 3.2	142 ± 4.7	2878 ± 30
506.15 K	89.34 ± 3	109.7 ± 3.7	2991 ± 30

Cc1ccccc1 [toluene]
Liquid
Conditions	speed of sound [m/s]
323.15 K	1200.8 ± 38
423.15 K	806 ± 26
523.15 K	425.5 ± 14
